Entries after “also recorded” stand apart in the source; their conditions may differ.
What was measured:
[1] = target: T1, FGF5 binding to FGFR1c (Homo sapiens, UniProt P11362); test: Plate-based binding of paracrine FGF to Fc-FGFR1c with heparin and/or sKL; settings: 0.4 USP heparin
T1 construct: a chimeric protein consisting of the FGFR1 ectodomain and the Fc region of a human IgG; purchased R&D Systems 237-F5/CF; 658FR050
Description: (§1) Proteins were coated on 96-well plates (MaxiSorp; 439454, Thermo Fisher Scientific), and proteins were added to wells in 100 μl of enzyme-linked immunosorbent assay (ELISA) coating buffer (E107, Bethyl Laboratories) with a lid placed overtop and incubated at 4° C. overnight. Plates were washed 5× with 350 μl of assay buffer (50 mM Tris [pH 7.4], 200 mM NaCl, 0.01% Tween 20) on a 50 TS microplate washer (BioTek). Plates were blocked for 1 hour in 200 μl of assay buffer with 0.5% BSA. Plates were washed as before, and proteins were incubated on plates in 100 μl of assay buffer with 0.5% BSA. Proteins or heparin was incubated in orders described in the respective figure legends. Assays using FLAG-tag-based detection were incubated with anti-FLAG coupled to HRP at 1:20,000, and assays using Fc detection were incubated with anti-human Fc coupled to HRP at 1:10,000. Plates were washed as above, and 100 μl of 3,3′,5,5′-tetramethylbenzidine (TMB) substrate (E102, Bethyl Laboratories) was added for 15 to 20 minutes until positive wells developed a dark blue color. Reactions were stopped with ELISA stop solution (E115, Bethyl Laboratories) and analyzed using the Synergy HI plate reader (BioTek) at 450 nm wavelength. […] As a control to remove background absorbance values, wells were coated with an equal amount of BSA to match the amount of protein coated in experimental wells and treated the same as experimental wells. To study the effects of sKL on the binding between paracrine FGFs and FGFRs, plates were run as above except coated with paracrine FGFs. Fc-FGFR1 was preincubated with sKL or vehicle for 60 minutes, and then the combination was added to wells and the assay was run as before.

[2] = target: T2, FGF7 binding to FGFR1c (Homo sapiens, UniProt P11362); test: as above; settings: 0.4 USP heparin
T2 construct: a chimeric protein consisting of the FGFR1 ectodomain and the Fc region of a human IgG; purchased R&D Systems 251-KG/CF; 658FR050
Description: as §1

[3] = target: T3, FGF2 binding to FGFR1c (Homo sapiens, UniProt P11362); test: as above; settings: 0.4 USP heparin before incubation with FGFR1c
T3 construct: a chimeric protein consisting of the FGFR1 ectodomain and the Fc region of a human IgG; purchased R&D Systems 233-FB/CF; 658FR050
T3 sequence (P11362 22-376 limits assumed): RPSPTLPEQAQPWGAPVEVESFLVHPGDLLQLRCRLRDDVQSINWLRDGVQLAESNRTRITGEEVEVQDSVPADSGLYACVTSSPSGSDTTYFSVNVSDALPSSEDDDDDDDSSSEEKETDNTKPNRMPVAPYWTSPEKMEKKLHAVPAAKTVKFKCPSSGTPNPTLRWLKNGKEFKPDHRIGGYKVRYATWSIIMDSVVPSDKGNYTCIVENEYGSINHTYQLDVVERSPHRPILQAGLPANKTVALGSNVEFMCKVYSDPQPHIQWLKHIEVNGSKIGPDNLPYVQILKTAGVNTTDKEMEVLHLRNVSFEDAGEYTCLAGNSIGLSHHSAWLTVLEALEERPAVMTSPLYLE
Description: as §1

[4] = test system: adult rat ventricular myocytes (ARVMs); test: Calcium transients and cell shortening in adult rat ventricular myocytes; type: cell-based
Description: As done before,^69 adult male Wistar rats (150-200 g) were killed and hearts were quickly removed and cannulated via the ascending aorta on a Langendorff system where they were retrograde perfused and digested by type II collagenase. Hearts were perfused with calcium-free Tyrode's solution supplemented with 0.2 mmol/L of ethyleneglycol-bis-((3-aminoethylether)-N,N, N′,N′-tetraacetic acid for 3 minutes. For the digestion, hearts were perfused with Tyrode's solution containing 0.1 mmol/L of CaCl2), 1 mg/ml of type II collagenase (Worthington), and 1 mg/ml of BSA for 3 to 4 minutes at room temperature. Cells were resuspended in Tyrode's solution containing 1 mmol/L of CaCl2). Tyrode's solution contains 130 mM NaCl, 5.4 mM KCl, 0.4 mM NaH2PO4, 0.5 mM MgCl2, 25 mM N-2-hydroxyethylpiperazine-N-2-ethanesulfonic acid, and 22 mM glucose. Adult rat ventricular myocytes (ARVMs) were loaded with the fluorescent Ca^2+ dye Fluo-3 AM (Thermo Fisher Scientific) for cytosolic Ca^2+ measurements. Loaded ARVMs were acutely perfused during 2 minutes with vehicle, FGF23 (10 ng/ml), or a combination of FGF23 and heparin (0.7 USP/ml). Cytosolic Ca^2+ transients were recorded under 1 Hz of field stimulation using 2 parallel platinum electrodes. Images were obtained with confocal microscopy (Zeiss LSM 510-META microscope), using a 40× objective by scanning the cell with an argon laser every 1.54 ms. Fluo-3 AM was excited at 488 nm, and emissions were collected at >505 nm. Cell contraction was stimulated as the difference in cell length between rest and contraction (during electrical stimulation), expressed as a percentage of shortening of the cell length. Image analysis was performed with self-made routines using IDL (Research Systems) and ImageJ (v1.53) software.

## heparin [reference compound]
[1]
  FGF5 binding to FGFR1c with heparin: increased the binding of FGF2 and FGFS to FGFR1c
[2]
  FGF7 binding to FGFR1c with heparin: did not induce binding
[3]
  FGF2 binding to FGFR1c with heparin: increased the binding of FGF2
[3]; listed as heparin
  FGF2 binding to FGFR1c with heparin: significantly increased; also recorded: increased FGF2 binding
[4]; FGF23 10 ng/ml with heparin 0.7 USP/ml
  FGF23 effect on [Ca2+]i transients in the presence of heparin: became statistically significant; also recorded: significantly increased
[4]; FGF23 with heparin
  FGF23 effect on cell shortening with addition of heparin: significantly increased the effect of FGF23
[4]; heparin 0.7 USP/ml
  [Ca2+]i transients, heparin by itself: no significant effects
[4]; heparin alone
  cell shortening, heparin by itself: no significant effects

Source: patent US20240384250A1, “FIBROBLAST GROWTH FACTOR 23 MODULATING COMPOUNDS” (THE UAB RESEARCH FOUNDATION, priority 2021, published 2024)
